The values that follow come from patent US10597367B2, “Metabotropic glutamate receptor negative allosteric modulators (NAMs) and uses thereof” (Sanford Burnham Prebys Medical Discovery Institute, priority 2014, dated 2020).

Read-outs that look alike come from different tables or passages of the source.

One may read the EC50 as the concentration needed to bring the measured effect to its halfway point.

For one assay, the system named is Male Wistar rats. Nature of the assay: Forced Swim Test (FST). Format: in vivo. The note with it: rat, FIG. 1. The method, then:
Male Wistar rats (Charles River, Hollister, Calif.), weighing 175-225 g (Charles River, Portage, Ind.) used for the forced swim test study were housed in pairs with food and water available ad libitum, except during testing, in a temperature and humidity controlled vivarium (21° C.). Rats were maintained on a 12-hour reverse light-dark cycle with lights on at 6 pm. All experimental procedures occurred during the dark cycle, were approved by the Institutional Animal Care and Use Committee of the Scripps Research Institute, and were in accordance with the Association for the Assessment and Accreditation of Laboratory Animal Care (AAALAC) guidelines. […]
After the habituation swim and 24 hours prior to the test swim, rats were administered one of three doses of a mGlu2/3 NAM, with doses and pretreatment time based on maximal brain penetration as determined by PK studies for each compound. Blood and brain tissue were collected immediately after the FST and the PK properties of each compound were analyzed together with FST behavior. […] Twenty-four hours after their first exposure, the animals were again placed in the swim apparatus for 5 min, and behaviors were monitored from above by video camera for subsequent analysis. The rater of the behavioral patterns was blind with respect to the experimental conditions being scored. […]

A further assay has as its target mGlu2 receptor (Rattus norvegicus (Rat), UniProt P31421). Nature of the assay: mGlu2 in vitro GIRK thallium flux assay. Format: cell-based. The note with it: NAM, HEK-293 GIRK cells. On the procedure:
All cell culture reagents were purchased from Invitrogen Corp. (Carlsbad, Calif.) unless otherwise noted. Compound activity at the group II (mGlu2 and mGlu3) mGlus was assessed using thallium flux through GIRK channels. Briefly, cells were plated into 384-well, black-walled, clear-bottomed poly-D-lysine-coated plates at a density of 15,000 cells/20 μL/well in DMEM containing 10% dialyzed FBS, 20 mM HEPES, and 100 units/mL penicillin/streptomycin (assay media). Plated cells were incubated overnight at 37° C. in the presence of 5% CO2. […] Cells were incubated for 1 h at room temperature, and the dye exchanged to assay buffer using an ELX405, leaving 20 μL/well. Test compounds were diluted to 2 times their final desired concentration in assay buffer (0.3% DMSO final concentration). […] Cell plates and compound plates were loaded onto a kinetic imaging plate reader (FDSS 6000 or 7000; Hamamatsu Corporation, Bridgewater, N.J.). Appropriate baseline readings were taken (10 images at 1 Hz; excitation, 470±20 nm; emission, 540±30 nm) and test compounds were added in a 20 μL volume and incubated for either 2.5 min or 60 min as indicated before the addition of 10 μL of thallium buffer with or without agonist. After the addition of agonist, data were collected for approximately an additional 2.5 min. Data were analyzed using Excel (Microsoft Corp, Redmond, Wash.). The slope of the fluorescence increase beginning 5 s after thallium/agonist addition and ending 15 s after thallium/agonist addition was calculated, corrected to vehicle and maximal agonist control slope values, and plotted in using either XLfit (ID Business Solutions Ltd) or Prism software (GraphPad Software, San Diego, Calif.) to generate concentration-response curves. Potencies were calculated from fits using a four-point parameter logistic equation. For concentration-response curve experiments, compounds were serially diluted 1:3 into 10 point concentration response curves and were transferred to daughter plates using an Echo acoustic plate reformatter (Labcyte, Sunnyvale, Calif.). Test compounds were applied and followed by EC80 concentrations of glutamate.

The next assay addresses mGlu3 receptor (Rattus norvegicus (Rat), UniProt P31422). Nature of the assay: mGlu3 in vitro GIRK thallium flux assay. The note with it: NAM; test compound incubated 2.5 min before EC80 glutamate; HEK-293 GIRK cells. Format: cell-based. On the procedure:
All cell culture reagents were purchased from Invitrogen Corp. (Carlsbad, Calif.) unless otherwise noted. Compound activity at the group II (mGlu2 and mGlu3) mGlus was assessed using thallium flux through GIRK channels. Briefly, cells were plated into 384-well, black-walled, clear-bottomed poly-D-lysine-coated plates at a density of 15,000 cells/20 μL/well in DMEM containing 10% dialyzed FBS, 20 mM HEPES, and 100 units/mL penicillin/streptomycin (assay media). Plated cells were incubated overnight at 37° C. in the presence of 5% CO2. […] Cells were incubated for 1 h at room temperature, and the dye exchanged to assay buffer using an ELX405, leaving 20 μL/well. Test compounds were diluted to 2 times their final desired concentration in assay buffer (0.3% DMSO final concentration). […] Cell plates and compound plates were loaded onto a kinetic imaging plate reader (FDSS 6000 or 7000; Hamamatsu Corporation, Bridgewater, N.J.). Appropriate baseline readings were taken (10 images at 1 Hz; excitation, 470±20 nm; emission, 540±30 nm) and test compounds were added in a 20 μL volume and incubated for either 2.5 min or 60 min as indicated before the addition of 10 μL of thallium buffer with or without agonist. […] Data were analyzed using Excel (Microsoft Corp, Redmond, Wash.). […] Potencies were calculated from fits using a four-point parameter logistic equation. […]

The next assay relates to SOD1G93A mice. The note with it: continuous treatment 1 or 5 mg/kg/day; cited from earlier work.
In the next assay the test system is R6/2 mice. The note with it: daily subcutaneous 20 mg/kg (MTD) beginning at 4 weeks; cited from earlier work.
In assay [1] the test system is wild-type and mGlu2 knockout mice. The note with it: acute 0.5, 1 or 5 mg/kg, i.p.; not in mGlu3 knockout mice; cited from earlier work.
The subject of a further assay is reserpine-treated rat. The note with it: cited from earlier work.
The test system of assay [2] is cultured spinal cord astrocytes. The note with it: astrocytes from wild-type and mGlu2 knockout mice, not mGlu3 knockout; cited from earlier work.

Chain of mGlu2 receptor (P31421 19-872): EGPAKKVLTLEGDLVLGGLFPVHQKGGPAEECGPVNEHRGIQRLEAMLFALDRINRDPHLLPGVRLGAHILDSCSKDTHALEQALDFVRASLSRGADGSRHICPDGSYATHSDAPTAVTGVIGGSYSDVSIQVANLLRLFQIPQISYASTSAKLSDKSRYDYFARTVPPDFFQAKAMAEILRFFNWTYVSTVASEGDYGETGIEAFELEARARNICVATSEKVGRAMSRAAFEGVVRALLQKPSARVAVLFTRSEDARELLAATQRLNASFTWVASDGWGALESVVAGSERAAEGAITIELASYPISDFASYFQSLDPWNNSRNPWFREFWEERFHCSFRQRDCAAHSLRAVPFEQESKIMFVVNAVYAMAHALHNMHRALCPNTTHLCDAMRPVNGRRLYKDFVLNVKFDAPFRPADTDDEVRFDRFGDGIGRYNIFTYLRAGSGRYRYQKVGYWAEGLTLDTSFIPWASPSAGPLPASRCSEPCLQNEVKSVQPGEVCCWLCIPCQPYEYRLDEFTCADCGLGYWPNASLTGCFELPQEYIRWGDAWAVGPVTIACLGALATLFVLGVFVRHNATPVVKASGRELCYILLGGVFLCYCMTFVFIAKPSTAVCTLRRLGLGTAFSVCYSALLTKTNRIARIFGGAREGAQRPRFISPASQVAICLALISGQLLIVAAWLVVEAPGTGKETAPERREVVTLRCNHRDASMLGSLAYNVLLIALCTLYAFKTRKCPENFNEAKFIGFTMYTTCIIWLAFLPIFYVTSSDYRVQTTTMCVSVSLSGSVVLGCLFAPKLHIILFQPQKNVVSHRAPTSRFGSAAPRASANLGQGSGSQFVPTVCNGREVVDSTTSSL
Chain of mGlu3 receptor (P31422 23-879): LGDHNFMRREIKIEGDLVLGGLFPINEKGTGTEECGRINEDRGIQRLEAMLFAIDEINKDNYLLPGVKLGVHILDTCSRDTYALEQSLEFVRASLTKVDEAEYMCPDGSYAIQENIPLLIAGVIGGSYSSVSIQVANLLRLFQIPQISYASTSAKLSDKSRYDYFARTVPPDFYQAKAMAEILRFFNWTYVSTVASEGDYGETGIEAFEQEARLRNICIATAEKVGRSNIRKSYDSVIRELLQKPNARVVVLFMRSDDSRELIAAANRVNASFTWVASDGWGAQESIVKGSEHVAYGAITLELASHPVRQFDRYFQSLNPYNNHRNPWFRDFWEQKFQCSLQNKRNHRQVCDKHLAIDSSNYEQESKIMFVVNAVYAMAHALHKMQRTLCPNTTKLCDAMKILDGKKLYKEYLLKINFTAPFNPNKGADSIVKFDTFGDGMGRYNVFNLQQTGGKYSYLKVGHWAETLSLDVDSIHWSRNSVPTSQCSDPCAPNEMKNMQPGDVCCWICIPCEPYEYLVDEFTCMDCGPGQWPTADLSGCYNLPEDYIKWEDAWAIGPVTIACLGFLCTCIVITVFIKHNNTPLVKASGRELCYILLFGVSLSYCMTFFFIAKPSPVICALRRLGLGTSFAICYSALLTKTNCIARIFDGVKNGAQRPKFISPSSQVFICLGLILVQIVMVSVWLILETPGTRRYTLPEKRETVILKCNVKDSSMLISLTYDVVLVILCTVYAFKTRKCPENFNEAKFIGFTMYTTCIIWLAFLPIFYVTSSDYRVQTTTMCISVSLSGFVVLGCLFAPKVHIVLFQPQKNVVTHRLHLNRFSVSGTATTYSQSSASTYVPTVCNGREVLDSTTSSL

For `O=C1CC(c2ccnc(Br)c2)=Nc2ccc(C(F)(F)F)cc2N1` [Example 191, 4-(2-Bromopyridin-4-yl)-8-(trifluoromethyl)-1,3-dihydro-2H-benzo[b][1,4]diazepin-2-one], the “antidepressant activity in the Forced Swim Test (immobility, swimming)” value with Male Wistar rats is “antidepressant activity by decreasing immobility and increasing swimming”.
In the case of `Cc1cc2c(cc1C(F)(F)F)NC(=O)CC(c1cccc(Oc3ccccc3)c1)N2` (centres unmarked) [Example 177, 7-Methyl-4-(3-phenoxyphenyl)-8-(trifluoromethyl)-4,5-dihydro-1H-benzo[b][1,4]diazepin-2(3H)-one], the EC50 at mGlu2 receptor (test compound incubated 2.5 min before EC80 glutamate, read-out: mGlu2 EC50 (μM) (2.5 min)) was above 10 µM; on mGlu2 receptor (read-out: mGlu2 EC50 (μM) (60 min), test compound incubated 60 min before EC80 glutamate), above 10 µM; at mGlu3 receptor, above 10 µM.
With `N[C@@]1(C(=O)O)CO[C@H]2[C@H](C(=O)O)[C@H]21` [LY379268], in the assay with SOD1G93A mice, the “neurological disability in SOD1G93A mice” value is recorded as “beneficial effect on neurological disability”. The “phenotype in R6/2 mice” value in the assay on R6/2 mice is listed as “dramatically improves the phenotype”. Moreover, the “spinal cord GDNF levels” value in assay [1] is recorded as “enhanced spinal cord GDNF levels”. Besides, in the assay with reserpine-treated rat (0.1, 1, 10 mg/kg ip), the “reserpine-induced akinesia after systemic administration” value was “did not reverse reserpine-induced akinesia”. In addition, in the assay with reserpine-treated rat (1, 5, 10, 20 nmol/2 μl icv, reserpine (5 mg/kg ip)-treated rat), the “locomotor activity after intracerebroventricular administration” value is “dose-dependent increase in locomotor activity”. Further, in assay [2], the “GDNF levels in astrocytes” value is given as “enhanced GDNF levels”.
Take `N#Cc1cc(C2=Nc3ccc(Br)cc3NC(=O)C2)ccn1` [Example 182, 4-(8-Bromo-2-oxo-2,3-dihydro-1H-benzo[b][1,4]diazepin-4-yl)picolinonitrile]: in the assay on Male Wistar rats, the “antidepressant activity in the Forced Swim Test (immobility, swimming)” value is “antidepressant activity by decreasing immobility and increasing swimming”.
